Results taken from patent US8748430B2, “Pyrrolidin-3yl-methylamine quinoxaline derivatives” (Hoffmann-La Roche Inc, priority 2008, dated 2014).

Target: T1, human orexin-2 (hOX2) receptor (Homo sapiens, UniProt O43614)
T1 construct: expressed in transfected cells
T1 sequence (O43614 1-444): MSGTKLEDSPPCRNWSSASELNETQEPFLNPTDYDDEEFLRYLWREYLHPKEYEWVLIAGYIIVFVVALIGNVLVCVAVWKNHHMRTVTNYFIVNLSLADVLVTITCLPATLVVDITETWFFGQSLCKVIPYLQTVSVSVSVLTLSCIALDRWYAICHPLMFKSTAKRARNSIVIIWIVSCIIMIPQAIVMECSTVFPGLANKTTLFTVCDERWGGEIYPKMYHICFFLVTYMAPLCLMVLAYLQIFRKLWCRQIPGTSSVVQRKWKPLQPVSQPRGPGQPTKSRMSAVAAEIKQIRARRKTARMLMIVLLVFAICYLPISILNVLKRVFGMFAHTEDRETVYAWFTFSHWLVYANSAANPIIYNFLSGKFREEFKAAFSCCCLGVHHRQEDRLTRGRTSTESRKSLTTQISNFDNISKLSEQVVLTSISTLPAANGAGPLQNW
Assay: Intracellular Ca2+ mobilization assay (FLIPR), antagonism of orexin-A at EC80
Assay type: cell-based
Conditions: CHO(dHFr-) cells stably expressing hOX2; orexin-A at EC80 as agonist; antagonist applied 25 min before; Kb=IC50/(1+[A]/EC50); read-out: Kb (μM) OX2R (human)
Protocol: Intracellular Ca^2+ Mobilization Assay
The Chinese Hamster Ovary (dHFr-) mutant cell line stably expressing human orexin-1 (hOX1) or human orexin-2 (hOX2) receptors were maintained in Dulbecco's Modified Eagle Medium (1×) with GlutaMax™1, 4500 mg/L D-Glucose and Sodium Pyruvate (Catalog No. 31966-021, Invitrogen, Carlsbad, Calif.), 5% dialyzed fetal calf serum (Catalog No. 26400-044), 100 μg/ml penicillin and 100 μg/ml streptomycin. The cells were seeded at 5×10^4 cells/well in the poly-D-lysine treated, 96-well, black/clear-bottomed plates (Catalog No. BD356640, BD Biosciences, Palo Alto, Calif.). 24 h later, the cells were loaded for 1 h at 37° C. with 4 μM Flou-4 acetoxymethyl ester (Catalog No. F-14202, Molecular Probes, Eugene, Oreg.) in FLIPR buffer (1×HBSS, 20 mM HEPES, 2.5 mM Probenecid). Hanks' Balanced Salt Solution (HBSS) (10×) (catalog No. 14065-049) and HEPES (1M) (catalog No. 15630-056) were purchased from Invitrogen, Carlsbad, Calif. Probenecid (250 mM) (catalog No. P8761) was from Sigma, Buchs, Switzerland. The cells were washed five times with FLIPR buffer to remove excess dye and intracellular calcium mobilization, [Ca^2+]i were measured using a Fluorometric Imaging Plate Reader (FLIPR-96, Molecular Devices, Menlo Park, Calif.) as described previously (Malherbe et al., Mol. Pharmacol., 64, 823-832, 2003). Orexin A (catalog No. 1455, Toris Cookson Ltd, Bristol, UK) was used as agonist. Orexin A ([…] stock solution in DMSO) was diluted in FLIPR buffer+0.1% BSA. The EC50 and EC80 values of orexin-A were measured daily from standard agonist concentration-response curves in CHO(dHFr-)-OX1R and -OX2R cell lines. All compounds were dissolved in 100% DMSO. Inhibition curves were determined by addition of 11 concentrations (0.0001-10 μM) of inhibitory compounds and using EC80 value of orexin-A as agonist (a concentration which gave 80% of max agonist response, determined daily). The antagonists were applied 25 min (incubation at 37° C.) before the application of the agonist. Responses were measured as peak increase in fluorescence minus basal, normalized to the maximal stimulatory effect induced by EC80 value of orexin-A or orexin-B. Inhibition curves were fitted according to the Hill equation: y=100/(1+(x/IC50)^nH), where nH=slope factor using Excel-fit 4 software (Microsoft). Kb values were calculated according to the following equation Kb=IC50/(1+[A]/EC50) where A is the concentration of agonist added which is very close to agonist EC80 value, and IC50 and EC50 values were derived from the antagonist inhibition and orexin-A or B agonist curves, respectively.

Row | Structure (SMILES) | Kb
1 | Cc1ccc(Cl)c(C(=O)N2CC[C@@H](CNc3nc4ccc(F)cc4s3)C2)c1 [Example 9, (2-Chloro-5-methyl-phenyl)-{(S)-3-[(6-fluoro-benzothiazol-2-ylamino)-methyl]-pyrrolidin-1-yl}-methanone] | 0.337 µM
2 | COc1ccc(C)cc1C(=O)N1CC[C@@H](CNc2nc3ccc(F)cc3s2)C1 [Example 10, {(S)-3-[(6-Fluoro-benzothiazol-2-ylamino)-methyl]-pyrrolidin-1-yl}-(2-methoxy-5-methyl-phenyl)-methanone] | 0.165 µM
3 | Cc1ccc(C(F)(F)F)c(C(=O)N2CC[C@@H](CNc3nc4ccc(Cl)cc4o3)C2)c1 [Example 14, {(S)-3-[(6-Chloro-benzooxazol-2-ylamino)-methyl]-pyrrolidin-1-yl}-(5-methyl-2-trifluoromethyl-phenyl)-methanone] | 0.304 µM
4 | O=C(c1ccccc1OC(F)(F)C(F)F)N1CC[C@@H](CNc2cnc3cc(Cl)ccc3n2)C1 [Example 27, {(S)-3-[(6-Chloro-quinoxalin-2-ylamino)-methyl]-pyrrolidin-1-yl}-[2-(1,1,2,2-tetrafluoro-ethoxy)-phenyl]-methanone] | 0.0839 µM
5 | O=C(c1ccccc1C(F)(F)F)N1CC[C@@H](CNc2nc3ccc(Cl)cc3o2)C1 [Example 11, {(S)-3-[(6-Chloro-benzooxazol-2-ylamino)-methyl]-pyrrolidin-1-yl}-(2-trifluoromethyl-phenyl)-methanone] | 0.726 µM
6 | Cc1onc(-c2ccccc2)c1C(=O)N1CC[C@@H](CNc2nc3ccc(F)cc3s2)C1 [Example 7, {(S)-3-[(6-Fluoro-benzothiazol-2-ylamino)-methyl]-pyrrolidin-1-yl}-(5-methyl-3-phenyl-isoxazol-4-yl)-methanone] | 0.0623 µM
